These results are taken from ChEMBL document CHEMBL1201862, “PubChem BioAssay data set” (2004).

Assay in all cases: NCI tumour cell line growth inhibition, 48 h
Experiment [1] has as its system A498.
In experiment [2] the test system is ACHN.
The subject of experiment [3] is CCRF-CEM.
Experiment [4] deals with HCT-15.
The subject of experiment [5] is HOP-62.
Experiment [6] deals with IGROV-1.
Experiment [7] deals with K562.
Experiment [8] deals with M14.
In experiment [9] the test system is MOLT-4.
In experiment [10] the test system is Malme-3M.
Experiment [11] has as its system NCI-H226.
The test system of experiment [12] is NCI-H23.
Experiment [13] concerns OVCAR-8.
The subject of experiment [14] is SF-295.
Experiment [15] has as its system SK-MEL-5.
For experiment [16], the system named is SNB-19.
For experiment [17], the system named is TK-10.
Experiment [18] relates to U-251.
The subject of experiment [19] is UO-31.
Experiment [20] has as its system RPMI-8226.

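All cell lines were grown in 96-well plates and treated with compound for 48 hours. GI50 = concentration required for 50% inhibition of growth.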 Activity calls are given as the source filed them. Rule as the data show it: active = GI50 up to about 1.1 µM and inactive = higher.

On to `Clc1ccc2c(c1)CC1C[N+]3=C(CCCCC3)C1=C2` (centres undefined), for which the GI50 in experiment [1] was 18.3 µM (inactive); in experiment [2], > 100 µM (inactive); in experiment [3], > 100 µM (inactive); in experiment [4] it was above 100 µM; in experiment [5], > 100 µM (inactive); in [6], 37.2 µM (inactive). Also, the GI50 in experiment [7] was > 100 µM (inactive); in experiment [8] it was 57.3 µM (inactive); in experiment [9] it was > 100 µM (inactive); in experiment [10] it was 63 µM (inactive); in experiment [11] it was 69.7 µM (inactive); in experiment [12], 37.4 µM (inactive). Besides, the GI50 in [13] was 28.3 µM (inactive); in experiment [14], 64.1 µM (inactive); in [15] it was 30.3 µM (inactive); in [16], 51.8 µM (inactive); in experiment [17], 69.2 µM (inactive); in [18] it was 23.7 µM (inactive). In addition, the GI50 in [19] is > 100 µM (inactive).

With `O=C1NC2(CCCCC2)C2CCCCCC12` (centres undefined), the GI50 in [1] was > 100 µM (inactive); in experiment [2] it was > 100 µM (inactive); in [4], above 100 µM; in experiment [5], > 100 µM (inactive); in experiment [6], > 100 µM (inactive); in experiment [7] it was > 100 µM (inactive). The GI50 in [8], in experiment [9], in experiment [10], in experiment [11], in experiment [12] and in experiment [14] was > 100 µM (inactive) throughout. The GI50 in [16], in experiment [17], in experiment [18] and in experiment [19] was > 100 µM (inactive) in each case.

As to `CCOC(=O)NC(=O)c1cn(CCSCCOC(=O)NCCCCCCNC(=O)OCCSCCn2cc(C(=O)NC(=O)OCC)c(=O)[nH]c2=O)c(=O)[nH]c1=O`, the GI50 in experiment [2] is > 100 µM (inactive); in experiment [3], > 100 µM (inactive); in [4], above 100 µM; in experiment [5] it was > 100 µM (inactive); in [6] it was > 100 µM (inactive); in [7], > 100 µM (inactive). Moreover, the GI50 in experiment [8], in experiment [10], in experiment [12], in [13], in experiment [14] and in [15] was > 100 µM (inactive) throughout. For the same compound, the GI50 in experiment [16], in [17], in experiment [18] and in experiment [19] was > 100 µM (inactive) each time.

With `Cn1c2c(c3ccccc31)CCN(CCCCN1CCCCC1)C2=O`, the GI50 in experiment [1] was > 100 µM (inactive); in experiment [2], > 100 µM (inactive); in [3], > 100 µM (inactive); in [4] it was above 100 µM; in [5], > 100 µM (inactive); in experiment [6] it was > 100 µM (inactive). In addition, the GI50 in experiment [7] is > 100 µM (inactive); in experiment [8], 99.1 µM (inactive); in [9], > 100 µM (inactive); in experiment [12], > 100 µM (inactive); in experiment [13], > 100 µM (inactive); in [20], > 100 µM (inactive). For the same compound, the GI50 in experiment [14], in experiment [15], in experiment [16], in [17], in experiment [18] and in [19] was > 100 µM (inactive) each time.

Regarding `CCOC(=O)CNC(=O)C(CCC(=O)N(C)O)NC(=O)CCC(N)C(=O)O` (centres undefined), the GI50 in [1] is > 100 µM (inactive); in [2] it was > 100 µM (inactive); in experiment [3], > 100 µM (inactive); in [4], above 100 µM; in [5], > 100 µM (inactive); in experiment [6], > 100 µM (inactive). Further, the GI50 in [7], in [8], in experiment [9], in [11], in experiment [12] and in [13] was > 100 µM (inactive) each time. Besides, the GI50 in experiment [20], in experiment [14], in [15], in [16], in experiment [17] and in experiment [18] was > 100 µM (inactive) throughout. Moreover, in experiment [19], the GI50 is > 100 µM (inactive).

As for `CSC1NC(c2ccccc2)=C(C#N)C(=O)N1C1OCC(OC(C)=O)C(OC(C)=O)C1OC(C)=O` (centres undefined), the GI50 in experiment [1] was > 100 µM (inactive); in experiment [2] it was > 100 µM (inactive); in [4] it was above 100 µM; in [5] it was > 100 µM (inactive); in [6], > 100 µM (inactive); in experiment [7] it was > 100 µM (inactive). In addition, the GI50 in [8], in [9], in [10], in [11], in experiment [12] and in [13] was > 100 µM (inactive) in each case. The GI50 in [20], in experiment [14], in experiment [15], in experiment [16], in [17] and in [18] was > 100 µM (inactive) throughout. The GI50 in experiment [19] was > 100 µM (inactive).

Take `CCOC(=O)c1csc(NC(=O)CCCC#N)n1`: the GI50 in experiment [1] is > 100 µM (inactive); in experiment [2] it was > 100 µM (inactive); in experiment [3] it was > 100 µM (inactive); in experiment [4] it was above 100 µM; in experiment [5] it was > 100 µM (inactive); in experiment [7], > 100 µM (inactive). Besides, the GI50 in experiment [8], in experiment [9], in experiment [11], in experiment [12], in experiment [13] and in [20] was > 100 µM (inactive) each time. In addition, the GI50 in experiment [14], in [15], in experiment [16], in experiment [17], in [18] and in experiment [19] was > 100 µM (inactive) in each case.

With `CCOC1=C2N=C(Cc3ccc(F)cc3)NC2C(=O)c2ccccc21` (centres undefined), the GI50 is 21.6 µM (inactive) in experiment [1]; 14 µM (inactive) in [2]; 8.26 µM (inactive) in experiment [3]; 58.9 µM (inactive) in experiment [5]; 66.7 µM (inactive) in [6]; 17.9 µM (inactive) in experiment [7]. In addition, the GI50 in [8] is 25.5 µM (inactive); in experiment [9] it was 17.5 µM (inactive); in experiment [10], 11.5 µM (inactive); in [12], 18.3 µM (inactive); in experiment [13], 20.6 µM (inactive); in experiment [20], 11.6 µM (inactive). The values for the GI50 in [17], in [18] and in [19] were 32.6 µM (inactive), 33 µM (inactive) and 4.69 µM (inactive), respectively.

Consider `O=C1CN(c2ccccc2)C(=O)C1C(=O)Nc1ccc(Cl)c(Cl)c1` (centres undefined), for which the GI50 is 4 µM (inactive) in [2]; 1.84 µM (inactive) in experiment [3]; 1.56 µM in experiment [4]; 2.22 µM (inactive) in [5]; 2.33 µM (inactive) in experiment [6]; 0.604 µM (active) in experiment [7]. In addition, the GI50 in experiment [8] was 1.79 µM (inactive); in experiment [9], 2.33 µM (inactive); in [12], 7.31 µM (inactive); in experiment [14], 3.72 µM (inactive); in experiment [15], 1.36 µM (inactive); in experiment [16] it was 4.62 µM (inactive). For the same compound, the GI50 in experiment [17] is 7.05 µM (inactive); in [18], 3.78 µM (inactive); in [19], 4.12 µM (inactive).

As for `COc1ccc2c(C)cc(N/N=C/c3sccc3C)nc2c1`, the GI50 is 21.7 µM (inactive) in experiment [2]; 39.8 µM (inactive) in [3]; 6.03 µM in [4]; 15.2 µM (inactive) in experiment [5]; 5.82 µM (inactive) in [6]; 11.8 µM (inactive) in experiment [8]. For the same compound, the GI50 in experiment [9] is 13.5 µM (inactive); in experiment [10], 6.95 µM (inactive); in experiment [11], 10 µM (inactive); in [12] it was 14.7 µM (inactive); in [13], 13.4 µM (inactive); in [20] it was 5.69 µM (inactive). In addition, the GI50 in experiment [14] is 14.7 µM (inactive); in [15], 6.24 µM (inactive); in experiment [16], 21.7 µM (inactive); in experiment [17] it was 17.1 µM (inactive); in experiment [18] it was 17.9 µM (inactive); in [19], 17.1 µM (inactive).

On to `Cc1cc2c(C(C)C)c(O)c(O)c(/C=N/c3ccccc3)c2c(O)c1-c1c(C)cc2c(C(C)C)c(O)c(O)c(/C=N/c3ccccc3)c2c1O`, for which the GI50 in experiment [2] is > 100 µM (inactive); in [3], > 100 µM (inactive); in experiment [4] it was above 100 µM; in experiment [5], > 100 µM (inactive); in experiment [6], > 100 µM (inactive); in experiment [7], > 100 µM (inactive). Further, the GI50 in experiment [8], in experiment [9], in [10], in experiment [11], in experiment [13] and in experiment [20] was > 100 µM (inactive) each time. In addition, the GI50 in experiment [14], in [16], in [17] and in [19] was > 100 µM (inactive) in each case.
